The source of these data is patent US10138233B2, “Imidazole compounds as modulators of FSHR and uses thereof” (Merck Patent GmbH, priority 2013, dated 2018).

One assay concerns the target T1, FSHR (Homo sapiens, UniProt P23945).
T1 construct: expressed in transfected cells; host or cells: CHO cells, clone Cho-FSHR-LUC-1-1-43
T1 sequence (P23945 18-695): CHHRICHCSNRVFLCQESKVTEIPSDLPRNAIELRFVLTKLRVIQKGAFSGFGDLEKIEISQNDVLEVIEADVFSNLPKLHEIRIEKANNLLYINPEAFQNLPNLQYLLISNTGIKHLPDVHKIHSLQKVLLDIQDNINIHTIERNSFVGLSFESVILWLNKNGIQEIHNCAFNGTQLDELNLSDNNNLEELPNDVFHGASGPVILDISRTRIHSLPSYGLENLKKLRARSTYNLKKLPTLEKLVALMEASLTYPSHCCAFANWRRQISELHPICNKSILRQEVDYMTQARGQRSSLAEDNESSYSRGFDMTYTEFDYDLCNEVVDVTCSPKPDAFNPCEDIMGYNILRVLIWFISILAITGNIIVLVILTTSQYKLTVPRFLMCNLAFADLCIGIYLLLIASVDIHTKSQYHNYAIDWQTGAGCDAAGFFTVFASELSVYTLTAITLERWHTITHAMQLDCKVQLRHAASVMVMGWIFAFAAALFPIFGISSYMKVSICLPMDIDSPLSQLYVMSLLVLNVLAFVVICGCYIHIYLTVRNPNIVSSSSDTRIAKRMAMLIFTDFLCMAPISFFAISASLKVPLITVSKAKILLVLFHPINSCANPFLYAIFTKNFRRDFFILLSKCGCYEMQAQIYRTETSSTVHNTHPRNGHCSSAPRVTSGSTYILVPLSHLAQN
The assay is described as follows: EC50 of cyclic AMP production in CHO FSHR cells + EC20 FSH (Assay A). Format: cell-based. The conditions noted are these: CHO-FSHR-LUC cells, in presence of EC20 FSH, cAMP HTRF, 1 h 37° C.

The target of assay [1] is T2, follicle-stimulating hormone (FSH) receptor (Rattus norvegicus, UniProt P20395).
T2 construct: Rat Granulosa EC50 FSH (Assay B); endogenous in cells; host or cells: rat granulosa cells
T2 sequence (P20395 18-692): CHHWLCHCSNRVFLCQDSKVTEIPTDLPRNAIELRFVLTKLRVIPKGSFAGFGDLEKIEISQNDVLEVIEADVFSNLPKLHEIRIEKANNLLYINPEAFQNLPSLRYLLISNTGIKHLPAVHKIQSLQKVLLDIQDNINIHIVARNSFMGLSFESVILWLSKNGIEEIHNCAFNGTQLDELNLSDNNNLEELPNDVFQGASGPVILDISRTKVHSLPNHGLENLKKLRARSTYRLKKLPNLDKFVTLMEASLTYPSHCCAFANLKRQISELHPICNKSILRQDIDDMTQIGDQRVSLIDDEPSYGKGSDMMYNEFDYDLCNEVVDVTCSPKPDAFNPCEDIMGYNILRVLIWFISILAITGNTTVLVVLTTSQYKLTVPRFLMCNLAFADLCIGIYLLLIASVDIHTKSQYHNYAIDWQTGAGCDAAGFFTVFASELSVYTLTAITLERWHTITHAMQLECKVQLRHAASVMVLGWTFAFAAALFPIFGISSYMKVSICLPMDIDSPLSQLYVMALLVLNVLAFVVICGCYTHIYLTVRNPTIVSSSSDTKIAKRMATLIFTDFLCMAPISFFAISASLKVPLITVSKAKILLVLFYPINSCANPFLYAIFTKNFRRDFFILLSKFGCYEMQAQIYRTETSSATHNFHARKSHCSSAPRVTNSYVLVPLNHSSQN
The assay is described as follows: Rat Granulosa EC50 FSH (Assay B). Format: cell-based. The settings on record: rat granulosa cells, per Yanofsky et al. 2006.

The structures appear in SMILES notation. pEC50: −log10 of the molar value.

As usually defined, the pEC50 is the negative decadic logarithm of the EC50, by convention in mol/L. Consider `COc1cc2c(cc1OC(C)C)-n1c(-c3ccsc3)nc(C(=O)N3CCCN(C(=O)C4CCC4)CC3)c1CC2` [Compound 6], for which the pEC50 (on FSHR; in assay [1]) was over 7.00 in each case.

Take `COc1cc2c(cc1OC(C)C)-n1c(-c3cccs3)nc(C(=O)N3CCCN(C(=O)C4CCC4)CC3)c1CC2` [Compound 7]: the pEC50 at FSHR was over 7.00; in assay [1] it was 6.00 to 7.00.

`COc1cc2c(cc1OC(C)C)-n1c(-c3cccs3)nc(C(=O)N(C)C(C)(C)C)c1CC2` [Compound 11, 8-Isopropoxy-7-methoxy-1-thiophen-2-yl-4,5-dihydro-imidazo[1,5-a]quinoline-3-carboxylic acid tert-butyl-methyl-amide]: the pEC50 at FSHR is 6.00 to 7.00; in assay [1] it was under 5.30.

For `COc1cc2c(cc1CC(C)C)-n1c(-c3ccc(F)s3)nc(C(=O)N3CCOCC3(C)C)c1CC2` [Compound 19, (3,3-Dimethyl-morpholin-4-yl)-[1-(5-fluoro-thiophen-2-yl)-8-isobutyl-7-methoxy-4,5-dihydro-imidazo[1,5-a]quinolin-3-yl]-methanone], the figures for the negative logarithm of the EC50 (pEC50) (at FSHR; in assay [1]) were over 7.00 and 6.00 to 7.00, respectively.

Take `COc1cc2c(cc1CC(C)C)-n1c(-c3ccc(F)s3)nc(C(=O)N(C)C(C)(C)C)c1CC2` [Compound 21, 1-(5-Fluoro-thiophen-2-yl)-8-isobutyl-7-methoxy-4,5-dihydro-imidazo[1,5-a]quinoline-3-carboxylic acid tert-butyl-methyl-amide]: the pEC50 at FSHR was over 7.00; in assay [1], 5.30 to 6.00.

With `COc1cc2c(cc1CC(C)C)-n1c(-c3cccs3)nc(C(=O)N(C)CCN3CCOC3=O)c1CC2` [Compound 25, 8-Isobutyl-7-methoxy-1-thiophen-2-yl-4,5-dihydro-imidazo[1,5-a]quinoline-3-carboxylic acid methyl-[2-(2-oxo-oxazolidin-3-yl)-ethyl]-amide], the pEC50 on FSHR was over 7.00; in assay [1] it was 6.00 to 7.00.

With `COc1cc2c(cc1CC(C)C)-n1c(-c3ccc[nH]3)nc(C(=O)N3CCOCC3(C)C)c1CC2` [Compound 30, (3,3-Dimethyl-morpholin-4-yl)-[8-isobutyl-7-methoxy-1-(1H-pyrrol-2-yl)-4,5-dihydro-imidazo[1,5-a]quinolin-3-yl]-methanone], the pEC50 at FSHR is 6.00 to 7.00; in assay [1], under 5.30.

On to `[2H]C([2H])([2H])N(CCN(C(=O)c1nc(-c2cccs2)n2c1CCc1cc(OC)c(CC(C)C)cc1-2)C([2H])([2H])[2H])C(C)=O` [Compound 31, 8-Isobutyl-7-methoxy-1-thiophen-2-yl-4,5-dihydro-imidazo[1,5-a]quinoline-3-carboxylic acid [2-(acetyl-methyl-d3-amino)-ethyl]-methyl-d3-amide], for which the pEC50 at FSHR was 6.00 to 7.00; in assay [1], under 5.30.

Consider `[2H]C([2H])([2H])OCC(C)(C)N(C(=O)c1nc(-c2cccs2)n2c1CCc1cc(OC)c(CC(C)C)cc1-2)C([2H])([2H])[2H]` [Compound 32, 8-Isobutyl-7-methoxy-1-thiophen-2-yl-4,5-dihydro-imidazo[1,5-a]quinoline-3-carboxylic acid (2-methoxy-d3-1,1-dimethyl-ethyl)-methyl-d3-amide], for which the figures for the pEC50 (at FSHR; in assay [1]) were over 7.00 and under 5.30, respectively.

On to `COc1cc2c(cc1CC(C)C)-n1c(S(=O)(=O)C3CC3)nc(C(=O)N(C)C(C)(C)C)c1CC2` [Compound 34, 1-Cyclopropanesulfonyl-8-isobutyl-7-methoxy-4,5-dihydro-imidazo[1,5-a]quinoline-3-carboxylic acid tert-butyl-methyl-amide], for which the pEC50 on FSHR was 6.00 to 7.00; in assay [1], 5.30 to 6.00.

With `COc1cc2c(cc1OC(C)C)-n1c(-c3cccn3C)nc(C(=O)N3CCOCC3(C)C)c1CC2` [Compound 38], the pEC50 at FSHR was 6.00 to 7.00; in assay [1] it was under 5.30.

As to `[2H]C([2H])([2H])Oc1cc2c(cc1CC(C)C)-n1c(-c3ccsc3)nc(C(=O)N3CCOCC3(C)C)c1CC2` [Compound 41, (3,3-Dimethyl-morpholin-4-yl)-(8-isobutyl-7-methoxy-d3-1-thiophen-3-yl-4,5-dihydro-imidazo[1,5-a]quinolin-3-yl)-methanone], the values for the negative logarithm of the EC50 (pEC50) (on FSHR; in assay [1]) were over 7.00 and 5.30 to 6.00, respectively.

Turning to `COc1cc2c(cc1OC(C)C)-n1c(-c3cccc(Cl)c3)nc(C(=O)N3CCOCC3(C)C)c1CC2` [Compound 44], the pEC50 at FSHR was 6.00 to 7.00; in assay [1], under 5.30.

Regarding `COc1cc2c(cc1OC(C)C)-n1c(C3=CCCC3)nc(C(=O)N3CCOCC3(C)C)c1CC2` [Compound 49], the pEC50 on FSHR was 6.00 to 7.00; in assay [1] it was under 5.30.

Consider `[2H]C([2H])([2H])Oc1cc2c(cc1CC(C)C)-n1c(-c3cccs3)nc(C(=O)N(C)C(C)(C)C)c1CC2` [Compound 53, 8-Isobutyl-7-methoxy-d3-1-thiophen-2-yl-4,5-dihydro-imidazo[1,5-a]quinoline-3-carboxylic acid tert-butyl-methyl-amide], for which the pEC50 at FSHR is over 7.00; in assay [1], 5.30 to 6.00.

For `COc1cc2c(cc1OC(C)C)-n1c(-c3cccs3)nc(C(=O)NC3(CO)COC3)c1CO2` [Compound 137, 8-Isopropoxy-7-methoxy-1-thiophen-2-yl-4H-5-oxa-2,9b-diaza-cyclopenta[a]naphthalene-3-carboxylic acid (3-hydroxymethyl-oxetan-3-yl)-amide], the pEC50 on FSHR is 5.30 to 6.00.

For `COc1cc2c(cc1OC(C)C)-n1c(-c3cccs3)nc(C(=O)NC3(C)COC3)c1CO2` [Compound 138, 8-Isopropoxy-7-methoxy-1-thiophen-2-yl-4H-5-oxa-2,9b-diaza-cyclopenta[a]naphthalene-3-carboxylic acid (3-methyl-oxetan-3-yl)-amide], at FSHR, the pEC50 was 5.30 to 6.00.

On to `COc1cc2c(cc1OC(C)C)-n1c(-c3cccc4c3OCO4)nc(C(=O)N3CCOCC3(C)C)c1CC2` [Compound 141], for which the pEC50 on FSHR was 6.00 to 7.00.

For the compound `COc1cc2c(cc1OC(C)C)-n1c(-c3cccc(Cl)c3Cl)nc(C(=O)N3CCOCC3(C)C)c1CC2` [Compound 142], the pEC50 on FSHR is 6.00 to 7.00.

With `COC(=O)c1nc(C(=O)N2CCOCC2(C)C)c2n1-c1cc(OC(C)C)c(OC)cc1CC2` [Compound 144, 3-(3,3-Dimethyl-morpholine-4-carbonyl)-8-isopropoxy-7-methoxy-4,5-dihydro-imidazo[1,5-a]quinoline-1-carboxylic acid methyl ester], the pEC50 at FSHR was 5.30 to 6.00.

For the compound `COc1cc2c(cc1OC(C)C)-n1c(C#N)nc(C(=O)N3CCOCC3(C)C)c1CC2` [Compound 145, 3-(3,3-Dimethyl-morpholine-4-carbonyl)-8-isopropoxy-7-methoxy-4,5-dihydro-imidazo[1,5-a]quinoline-1-carbonitrile], the pEC50 at FSHR is under 5.30.

For the compound `COc1cc2c(cc1CC(C)C)-n1c(-c3sccc3C)nc(C(=O)N(C)C(C)(C)C)c1CC2` [Compound 146, 8-Isobutyl-7-methoxy-1-(3-methyl-thiophen-2-yl)-4,5-dihydro-imidazo[1,5-a]quinoline-3-carboxylic acid tert-butyl-methyl-amide], the pEC50 at FSHR was 6.00 to 7.00.

As to `COc1cc2c(cc1-c1ccn(C)n1)-n1c(-c3ccc(C)s3)nc(C(=O)N3CCOCC3(C)C)c1CC2` [Compound 147, (3,3-dimethylmorpholino)(7-methoxy-8-(1-methyl-1H-pyrazol-3-yl)-1-(5-methylthiophen-2-yl)-4,5-dihydroimidazo[1,5-a]quinolin-3-yl)methanone], the pEC50 on FSHR was 6.00 to 7.00.
